Reference: patent publication US20060134801A1, “Methods and compositions involving MDA-7” (Board of Regents, The University of Texas System, priority 2003, published 2006)

How the values were obtained:
HUVEC = experiment: Endothelial cell differentiation (tube formation) assay on Matrigel; format: cell-based, human; details: for concentration required to significantly inhibit HUVEC tube formation: equimolar comparison; for tube formation in the presence of IL-22R1 antibody: high concentrations, vs PBS
Method: Endothelial cell differentiation (tube formation) assays were done using the in vitro angiogenesis assay kit (Chemicon, Temecula, Calif.). Briefly, HUVEC and HMVEC were grown to 80% confluency, collected, resuspended in growth medium, and plated at a concentration of 2−10^4 cells/well in a 96-well plate coated with Matrigel (Chemicon, Temecula, Calif.). Cells were treated with sMDA-7 protein (1, 5, 10, and 50 ng/ml), or a preparation immunodepleted of sMDA protein for 24 h at 37° C. Cells treated with PBS served as negative controls in these experiments. The ability of sMDA-7 to inhibit tube formation was determined and quantitated by counting the number of tubes under bright-field microscopy.
For experiments involving comparative studies, cells were treated with equimolar concentrations of sMDA-7 (5, 10, and 300 ng/ml), recombinant human endostatin (5.2, 10.4, and 315 ng/ml; Calbiochem, La Jolla, Calif.), recombinant IFN-γ (4.5, 9, and 268 ng/ml; R&D systems, Minneapolis, Minn.) or recombinant IP-10 (2.4, 4.5, and 134 ng/ml; R&D systems, Minneapolis, Minn.) and analyzed for tube formation assay as described above. All samples were tested in duplicate. Experiments were repeated at least 5-6 times.
For receptor blocking studies, HUVEC grown in six-well plates were pretreated with IL-22R1 blocking antibody (1 ng/ml and 5 ng/ml). Following overnight incubation, cells were harvested, washed, and plated in Matrigel coated 96-well plates. Fresh IL-22R1 blocking antibody and sMDA-7 was added to the wells in a 1:1 ratio (1 ng/ml of IL-22R1 antibody:1 ng/ml of sMDA-7) or 1:5 ratio (1 ng/ml of IL-22R1 antibody:5 ng/ml of sMDA-7) and incubated at 37° C. After overnight incubation, the plates were examined for tube formation. All other experimental procedures were the same as described above. […] The relative amount of IL-22R1 used for experiments involving endostatin was 315 ng/ml (1:1 ratio) and 134 ng/ml for experiments involving IP-10 (1:1 ratio). All other experimental procedures were the same as described previously. For blocking studies using anti-IP-10 or anti-IFN-γ neutralizing antibodies (R & D Systems), experiments were conducted as described above for receptor studies except that HUVEC were treated with the appropriate neutralizing antibody (1 μg and 5 μg/ml) prior to treatment with sMDA-7 (300 ng/ml).

HUVECs = experiment: Clonogenic survival of endothelial cells after irradiation; format: cell-based, human; details: MDA-7 protein 10 ng/ml; angiostatin, endostatin 100 ng/ml; 12 h before irradiation
Method: Twelve hours after seeding HUVECs in 4-well plates (Nunc, Roskilde, Denmark), medium was replaced with serum/growth factor-free medium. After serum/growth factor starvation for 12 hours, cells were treated with complete medium containing either MDA-7 protein (10 ng/ml) (removed from cultures of 293 cells), angiostatin (100 ng/ml), or endostatin (100 ng/ml). Twelve hours later, cells were irradiated with ^137CS unit (3.4 Gy/min) at room temperature, trypsinized and counted. Known numbers of cells were replated in 60 mm culture dishes and incubated to allow macroscopic colony development. Colonies were counted after 14 days, and the percent plating efficiency and surviving fractions following given treatments were calculated based on the survival of non-irradiated cells.

A549 cells = experiment: Radiation clonogenic survival assay; format: cell-based, human; details: A549 and H1299
Method: In vitro transfection studies for all cell lines were performed by plating 2×10^5 cells in T25 flasks. Forty-eight hours after plating, cells were incubated for 1 hour with purified vector in 1 ml of medium without serum. After 1 hour, fresh medium supplemented with 10% FBS was added to the flask. Serum-free medium was used for mock transfection.
The effectiveness of treatments was assessed by clonogenic assays. Briefly, monolayers of A549, H1299, CCD-16, and MRC-9 cells were treated in T25 flasks as described above, and after various doses of irradiation the cells were trypsinized and counted. Known numbers of cells were then replated in 100 mm culture dishes and returned to the incubator to allow macroscopic colony development.

MDA-7 expression in PBMC = MDA-7 expression in PBMC (real time RT-PCR, intracellular FACS); format: cell-based, human; details: 100 U/ml; 6 hr; resting PBMC
Method: Cells were isolated at the designated times and protein levels measured and RNA isolated. Real time RT-PCR was performed using TaqMan OneStep procedure according to the manufacturers protocol (Applied Biosystems, Foster City Calif.). Gene specific primer/probes for MDA-7 and HPRT were purchased from Applied Biosystems. The reactions were carried out according to manufacturer's protocol using an ABI Prism 7900 HT sequence detection system and the analysis was conducted using Sequence Detection Software version 2.9. MDA-7 protein was detected by intracellular FACs analysis. Cells were treated with Brefeldin A at 10 μg/ml 4 hr prior to harvest to prohibit secretion of the cytokine. Where applicable cells were first surface stained using directly conjugated antibodies and then, to detect intracellular proteins, cells were fixed by treatment with 4% paraformaldehyde and then permeabilized with detergent, n-octyl glucopyranoside at 7 mg/ml. As the control for permeabilization, cells were also stained with a monoclonal antibody directed against the intracellular protein vimentin. Standard protocols were followed for immunofluorescence staining. Immunofluorescence was analyzed on a FACSCalibur with Cell Quest software (BD Immunosciences).
To determine what cytokines may be driving this expression, PBMC were stimulated with IL-2, a major cytokine produced during PHA activation. […]

IL-22R1 on HUVEC = biological target: T1, IL-22R1 on HUVEC (human, UniProt Q8N6P7 16-574); experiment: cell-based or functional assay
T1 sequence (looked up): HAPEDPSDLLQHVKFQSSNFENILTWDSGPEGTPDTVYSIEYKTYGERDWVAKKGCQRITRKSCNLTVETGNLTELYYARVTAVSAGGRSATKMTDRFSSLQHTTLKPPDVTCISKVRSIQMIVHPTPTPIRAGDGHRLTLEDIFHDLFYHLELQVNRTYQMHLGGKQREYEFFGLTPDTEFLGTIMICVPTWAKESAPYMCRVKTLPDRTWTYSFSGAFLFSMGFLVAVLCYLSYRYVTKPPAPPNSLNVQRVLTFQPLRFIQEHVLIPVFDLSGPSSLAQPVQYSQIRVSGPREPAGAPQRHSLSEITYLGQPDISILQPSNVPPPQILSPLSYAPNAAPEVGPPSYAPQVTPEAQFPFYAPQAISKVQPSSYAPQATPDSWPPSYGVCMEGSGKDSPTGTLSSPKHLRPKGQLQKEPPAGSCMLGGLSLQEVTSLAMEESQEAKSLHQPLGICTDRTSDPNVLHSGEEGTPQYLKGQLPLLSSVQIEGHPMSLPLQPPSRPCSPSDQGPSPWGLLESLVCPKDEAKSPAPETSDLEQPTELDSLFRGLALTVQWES

For IFN-γ: recombinant IFN-γ (R&D systems), the “concentration required to significantly inhibit HUVEC tube formation” value (HUVEC) was 268 ng/mL.

In the case of angiostatin, the “radiosensitization of HUVECs” value (HUVECs) is reported as “produced radiosensitizing effects”.

For IP-10: recombinant IP-10 (R&D systems), the “concentration required to significantly inhibit HUVEC tube formation” value (HUVEC) was 134 ng/mL and the “tube formation in the presence of IL-22R1 antibody” value (HUVEC) was “significantly inhibited”.

In the case of endostatin, the “radiosensitization of HUVECs” value (HUVECs) is reported as “produced radiosensitizing effects”, the “inhibition of tube formation over control” value (HUVEC; 315 ng/ml) is reported as 40-50% and the “concentration required to significantly inhibit HUVEC tube formation” value (HUVEC) is reported as 300 ng/mL. For the same molecule, the “tube formation in the presence of IL-22R1 antibody” value (HUVEC) was “significantly inhibited”.

With `COC(=O)Nc1nc2ccc(C(=O)c3cccs3)cc2[nH]1` [Nocodazole] the “radiosensitivity after G2/M arrest” value (A549 cells; 200 ng/ml) was “does not enhance the radiosensitivity”.

IL-15: cytokine was tested, and the “expression of MDA-7 mRNA and protein” value (MDA-7 expression in PBMC) was “stimulated”.

With `COc1cc(/C=C/C(=O)CC(=O)/C=C/c2ccc(O)c(OC)c2)ccc1O` [curcumin, Curcumin] the Ad-mda7 radiosensitization (A549 cells; 10 μM) was “abrogated”.

B1: secreted MDA-7 protein (soluble, glycosylated, produced by stably transfected 293 cells) (ligand)
chain: AQGQEFHFGPCQVKGVVPQKLWEAFWAVKDTMQAQDNITSARLLQQEVLQNVSDAESCYLVHTLLEFYLKTVFKNYHNRTVEVRTLKSFSTLANNFVLIVSQLQPSQENEMFSIRDSAHRRFLLFRRAFKQLDVEAALTKALGEVDILLTWMQKFYKL
modifications: glycosylated (sites not given)
With B1 the “HUVEC tube formation with sMDA-7 (5 ng/ml), restoration by 1 ng/ml IL-22R1 blocking antibody (1:5 ratio)” value (IL-22R1 on HUVEC) was under 60% and the “HUVEC tube formation with sMDA-7 (5 ng/ml), restoration by 5 ng/ml IL-22R1 blocking antibody (1:1 ratio)” value (IL-22R1 on HUVEC) was over 90%.

B2: IL-7: cytokine (protein, UniProt P13232 26-177, looked up)
Interleukin-7: DCDIEGKDGKQYESVLMVSIDQLLDSMKEIGSNCLNNEFNFFKRHICDANKEGMFLFRAARKLRQFLKMNSTGDFDLHLLKVSEGTTILLNCTGQVKGRKPAALGEAQPTKSLEENKSLKEQKKLNDLCFLKRLLQEIKTCWNKILMGTKEH
In the case of B2, the “expression of MDA-7 mRNA and protein” value (MDA-7 expression in PBMC) is reported as “stimulated”.
